Laboratory results taken from patent publication EP4700025A1, “AMIDE COMPOUND, PHARMACEUTICAL COMPOSITION COMPRISING SAME, AND USE THEREOF” (Suzhou Genhouse Bio Co., Ltd., priority 2023, dated 2024).
Read-outs that look alike come from different tables or passages of the source. Each block holds one compound with its values, some of them ahead of it.

Assays:
[1] = tested on: HCT-116; assay: CCK8 proliferation inhibition, HCT-116; assay type: cell-based; conditions: Homo sapiens, 192 h, CCK8, 8 days after drug treatment
[2] = tested on: HCT-116-MTAP^-/-; assay: CCK8 proliferation inhibition, HCT-116-MTAP^-/-; assay type: cell-based; conditions: Homo sapiens, 192 h; HCT-116-MTAP^-/- (MTAP-deficient); CCK8, 8 days after drug treatment
[3] = tested on: A549; assay: CCK8 proliferation inhibition, A549; assay type: cell-based; conditions: Homo sapiens, 192 h, CCK8, 8 days after drug treatment
[4] = tested on: SDMA; assay: SDMA Inhibition Assay in HCT-116 cells; assay type: cell-based; conditions: Homo sapiens, HCT-116, 96 hours
[5] = tested on: SDMA; assay: SDMA Inhibition Assay in HCT-116-MTAP^-/- cells; assay type: cell-based; conditions: Homo sapiens, 96 hours
[6] = tested on: SDMA; assay: SDMA Inhibition Assay in A549 cells; assay type: cell-based; conditions: Homo sapiens, A549, 96 hours
[7] = Pharmacokinetic assay in rats; assay type: in vivo, SD rats; conditions: rat; for AUC(0-inf) / AUC(0-t) / C0 / MRT inf / Vd / Cmax / Tmax: plasma; for MRT inf: read-out: MRT(0-∞); for Vd: read-out: Vz
Description: In this experimental example, the pharmacokinetic behavior of the test compounds after administration by intravenous injection (IV) and oral gavage (PO) in SD rats was tested.
On the day of administration, rats were weighed for actual body weight, and the administration volume was calculated. Each compound was tested in two groups with 3 rats in each group; one group was subjected to administration by single intravenous injection, and the other group was subjected to administration by single oral gavage. The whole blood samples were collected via the jugular vein at prescribed time points (0.25 h, 0.5 h, 1 h, 2 h, 4 h, 8 h, and 24 h after administration). After the blood sample collection, the samples were immediately transferred to labeled commercial sample tubes containing K2-EDTA (0.85-1.15 mg), followed by centrifugation (3200× g, 4 °C, 10 min) and plasma collection. The plasma was transferred to a pre-cooled centrifuge tube, frozen in dry ice, and then stored in an ultra-low temperature freezer at -60 °C or lower until the LC-MS/MS analysis was performed.
Plasma concentrations were determined by the LC-MS/MS method. Plasma drug concentration data for the compounds were processed using a non-compartmental model in the WinNonlin Version 6.3 (Pharsight, Mountain View, CA) pharmacokinetic software. The relevant pharmacokinetic parameters were calculated by a linear-log trapezoidal method.

[8] = biological target: T1, CYP450 3A4 (Homo sapiens, UniProt P08684); assay: Inhibition of human liver microsome CYP450 enzyme 3A4; assay type: in vitro ADME
T1 construct: from tissue; host or cells: human liver microsomes
T1 sequence (P08684 whole entry): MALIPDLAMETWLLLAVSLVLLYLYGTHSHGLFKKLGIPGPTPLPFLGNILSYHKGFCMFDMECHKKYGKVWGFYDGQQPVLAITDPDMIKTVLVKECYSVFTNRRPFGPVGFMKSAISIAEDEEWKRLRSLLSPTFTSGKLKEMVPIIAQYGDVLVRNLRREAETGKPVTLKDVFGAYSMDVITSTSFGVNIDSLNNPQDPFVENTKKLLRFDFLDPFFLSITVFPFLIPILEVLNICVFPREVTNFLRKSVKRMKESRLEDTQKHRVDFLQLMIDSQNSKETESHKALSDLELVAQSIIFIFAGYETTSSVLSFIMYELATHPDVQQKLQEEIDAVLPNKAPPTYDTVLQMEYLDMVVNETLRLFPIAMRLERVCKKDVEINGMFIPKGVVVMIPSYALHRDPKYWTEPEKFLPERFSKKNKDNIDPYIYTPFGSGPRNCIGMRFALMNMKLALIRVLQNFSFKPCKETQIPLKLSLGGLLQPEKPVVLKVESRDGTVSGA
Description: 100 mM K-Buffer: 9.5 mL of stock solution A was mixed with 40.5 mL of stock solution B, the total volume was adjusted to 500 mL with ultrapure water, and the buffer was titrated to pH 7.4 with KOH or H3PO4. • Starting material A (1 M potassium dihydrogen phosphate): 136.5 g of potassium dihydrogen phosphate in 1 L of water; • Stock solution B ([…]): 174.2 g of potassium dihydrogen phosphate in 1 L of water.
The test substance powder was prepared into a stock solution at a certain concentration with DMSO or another organic solvent, which was then further diluted with a suitable organic solvent.
The liver microsomal in vitro incubation system for the CYP450 enzyme metabolism phenotype study was a biochemical reaction of the prepared liver microsomes supplemented with a redox coenzyme and an enzyme-specific selective inhibitor under simulated physiological temperature and physiological environment conditions.
The concentration of the parent drug or a metabolite thereof in the incubation solution was determined by LC-MS/MS. and the IC50 value was calculated.

[9] = PO 10mpk (IV reference 2mpk; 0.2mpk for I-7)

SMILES: Cn1ncc2c(N)nc3cc(F)c(C(=O)N4CCOC[C@@H]4c4ccc5c(c4)OC(F)(F)O5)cc3c21 [Example I-7]
- EC50 [1]: 1160 nM
- EC50 [2]: 6.6 nM
- EC50 [3]: 34.7 nM
- EC50 [4]: 181 nM
- EC50 [5]: 2 nM
- EC50 [6]: 1.2 nM
- AUC(0-inf) ([7]; 0.2 mg/kg, IV 0.2mpk): 0.22 µM·h
- AUC(0-t) ([7]; 0.2 mg/kg, IV 0.2mpk): 0.148 µM·h
- C0 ([7]; 0.2 mg/kg, IV 0.2mpk): 176 nM
- MRT inf ([7]; 0.2 mg/kg, IV 0.2mpk): 1.8 h
- Vd ([7]; 0.2 mg/kg, IV 0.2mpk): 3.5 L/kg
- AUC(0-inf) ([7]; 10 mg/kg, PO 10mpk): 9.6 µM·h
- AUC(0-t) ([7]; 10 mg/kg, PO 10mpk): 6.58 µM·h
- Cmax ([7]; 10 mg/kg, PO 10mpk): 781 nM
- Tmax ([7]; 10 mg/kg, PO 10mpk): 4.3 h
- MRT inf ([7]; 10 mg/kg, PO 10mpk): 9.9 h
- CLz ([7]; IV 0.2mpk): 31.7 mL/min/kg
- R_AUC(t/∞) ([7]; IV 0.2mpk): 67%
- t1/2z ([7]; IV 0.2mpk): 1.3 h
- R_AUC(t/∞) ([7]; PO 10mpk): 76.9%
- t1/2z ([7]; PO 10mpk): 8.1 h
- F [7, 9]: 89.1%
- IC50 ([8]; human, microsomes, pH 7.4): > 10000 nM

- EC50 [1]: 928 nM
- EC50 [2]: 3.8 nM
- EC50 [3]: 24.6 nM
- EC50 [4]: 201 nM
- EC50 [5]: 1.2 nM
- EC50 [6]: 0.8 nM
- AUC(0-inf) ([7]; SD, 2 mg/kg, IV 2mpk): 2.43 µM·h
- AUC(0-t) ([7]; SD, 2 mg/kg, IV 2mpk): 2.15 µM·h
- C0 ([7]; SD, 2 mg/kg, IV 2mpk): 1140 nM
- MRT inf ([7]; SD, 2 mg/kg, IV 2mpk): 3.1 h
- Vd ([7]; SD, 2 mg/kg, IV 2mpk): 5.6 L/kg
- AUC(0-inf) ([7]; SD, 10 mg/kg, PO 10mpk): 13.2 µM·h
- AUC(0-t) ([7]; SD, 10 mg/kg, PO 10mpk): 9.06 µM·h
- Cmax ([7]; SD, 10 mg/kg, PO 10mpk): 808 nM
- Tmax ([7]; SD, 10 mg/kg, PO 10mpk): 4.7 h
- MRT inf ([7]; SD, 10 mg/kg, PO 10mpk): 13.2 h
- CLz ([7]; IV 2mpk): 31.7 mL/min/kg
- R_AUC(t/∞) ([7]; IV 2mpk): 88.8%
- t1/2z ([7]; IV 2mpk): 2.3 h
- R_AUC(t/∞) ([7]; PO 10mpk): 71.5%
- t1/2z ([7]; PO 10mpk): 9.3 h
- F [7, 9]: 84%
- IC50 ([8]; human liver microsomes, 3A4, read-out: IC50): > 10000 nM
SMILES: Cn1ncc2c(N)nc3cc(F)c(C(=O)N(Cc4ccc5c(c4)OC(F)(F)O5)C4CC4)cc3c21 [Example I-16]

SMILES: Cn1ncc2c(N)nc3cnc(C(=O)N4CCOC[C@@H]4c4ccc5c(c4)OC(F)(F)O5)cc3c21 [Example I-38]
- EC50 [1]: 313 nM
- EC50 [2]: 7.4 nM
- EC50 [3]: 53.7 nM
- EC50 [4]: 147 nM
- EC50 [5]: 1.5 nM
- EC50 [6]: 1.7 nM
- AUC(0-t) ([7]; 2 mg/kg, IV 2mpk): 4 µM·h
- AUC(0-t) ([7]; 100 mg/kg, PO 100mpk): 199 µM·h
- Cmax ([7]; 100 mg/kg, PO 100mpk): 10200 nM
- F ([7]; PO 100mpk vs IV 2 mpk): 99%
- IC50 ([8]; human, microsomes, pH 7.4): > 10000 nM
